A melting point compilation (Tetko et al.; mined from patent text by program, amines drawn as free bases though some values may be those of a salt)

`COc1cccc2c1nc(C(F)F)n2-c1nc(C2CCCN(C(=O)OC(C)(C)C)C2)nc(N2CCOCC2)n1` (stereo unspecified) gave a melting point of 200 to 202 °C.
With `CCCCCCCCCCCCCCCCOC(=O)c1ccc(Cl)c(Nc2cc(=O)n(-c3c(Cl)cc(Cl)cc3Cl)n2C(=O)OCc2ccccc2)c1` the melting point was 128 to 131 °C.
For `CC(=O)NC(=NNNc1ccccc1[N+](=O)[O-])c1ccccc1Cl`, the melting point was 196 to 198 °C.
Work on `CC(C)(C)OC(=O)C1(ON=C(C(=O)O)c2ccco2)CCCC1` yielded a melting point of 107 °C.
`CC(=O)Nc1ccc(C2COC(=O)O2)cn1` (stereo unspecified) showed a melting point of 135 to 139 °C.
`Cc1cc2c(c3c1sc1ccc(O)cc13)C(=O)N(CCN(C)C)C2=O` showed a melting point of 249 to 254 °C.
With `Cc1nc[nH]c1CSCCNC(=NCCc1ccccc1)NC#N` the melting point was 135 to 136 °C.
In the case of `CCCCCCCCNC(=O)C1=C(C(=O)Nc2cc(OC3CCCC3)c(Cl)cc2F)CCCC1`, the melting point is reported as 127 to 130 °C.
`Nc1c(F)c(F)cc(C(=O)O)c1F` showed a melting point of 133 to 136 °C.
Work on `COCC(COC)Nc1c(C)nn2c(-c3ccc(Cl)cc3Cl)cccc12` yielded a melting point of 86.9 to 90 °C.
Molecule `O=C(O)CNC(=O)CCc1cccc(-c2nc(=O)c3ccccc3s2)n1` has a melting point of 219 to 220 °C.
In the case of `NCc1ccccc1CN`, the melting point is reported as over 250 °C.
`CCCCC(=O)c1c(O)oc(=O)c(C(=O)CCCC)c1O` showed a melting point of 84 to 85 °C.
`CCCCCCCN(CC)C(=O)CCC(=O)c1ccc(NS(C)(=O)=O)cc1` gave a melting point of 100 to 102 °C.
`CCN(CC)C(=O)Cc1c(N)n[nH]c1-c1ccc(OC)cc1` gave a melting point of 154 to 158 °C.
In the case of `Cc1ccc2nc(NC(=O)c3ccc(C(C)(C)CCc4nnn[nH]4)cc3)cn2c1`, the melting point is reported as 245 to 246 °C.
`CC(=O)SC(CC(=O)c1ccc(F)cc1)C(=O)O` (stereo unspecified) gave a melting point of 108 to 110 °C.
In the case of `NC(=O)c1sc2nccc(OC3CCCCCC3)c2c1N`, the melting point is reported as 179 to 180 °C.
Molecule `CCCN(CCC)Cc1nc(-c2ncn3c2CN(C)C(=O)c2ccccc2-3)no1` has a melting point of 130 to 132 °C.
For `O=C(Nc1ccccc1)c1sc2c([N+](=O)[O-])c(O)c(O)cc2c1Cl`, the melting point was 288 °C.
`CCOC(=O)c1c(C)cc2nc(COC(=O)NCCO)n(-c3ccccc3S(=O)(=O)NC)c(=O)c2c1C` showed a melting point of 122 to 125 °C.
Molecule `COC(=O)C(=Cc1cc(OC)cc(OC)c1)c1ccc(Oc2ccc(CO)cc2)cc1` has a melting point of 93 to 95 °C.
For `CCOC(=O)C(C(=O)C(C)C)C(CC(=O)C(C)C)c1ccc(F)cc1` (stereo unspecified), the melting point was 57 to 60 °C.
Work on `COc1ccc(C(Cc2ccncc2)c2ccc(C(=O)O)cc2)cc1OC1CCCC1` (stereo unspecified) yielded a melting point of 161 to 163 °C.
`C1=C(c2c[nH]c3ccccc23)CCN(CC2COc3ccc4nocc4c3O2)C1` (stereo unspecified) gave a melting point of 110 °C.
`COc1ccc2cc(C3=CCC4(CCNCC4)CC3)ccc2c1` showed a melting point of 147 to 150 °C.
For `c1cncc(-c2nnc(NCC3CC3)s2)c1`, the melting point was 162 to 165 °C.
Molecule `COc1ccc(C(=O)Nc2c(Cl)cc(C=O)cc2Cl)cc1OC1CCCC1` has a melting point of 96 to 98 °C.
With `CC(C)(C)Nc1nc(N2CCCC2)cc(N2CCNCC2)n1` the melting point was 162 to 165 °C.
Work on `O=C(COc1cc(-c2ccccn2)nc2ccccc12)N1CCOCC1` yielded a melting point of 185 °C.
Molecule `O=C(Nc1nc(-c2ccccn2)nc2ccccc12)C(F)(F)F` has a melting point of 245 to 248 °C.
With `CCC1(CC)COP(=O)(Cc2ccc([N+](=O)[O-])cc2)OC1` the melting point was 159 to 160 °C.
`Cc1cc(C#N)cc(CNc2c(NC(C)C(C)(C)C)c(=O)c2=O)c1` (stereo unspecified) gave a melting point of 244 to 247 °C.
Molecule `Cc1ncc(CNC(=O)c2sc(-n3cnn(Cc4ccc(F)cc4)c3=O)nc2C)s1` has a melting point of 176 to 177 °C.
Work on `CCCSC(C)c1c(-c2ccc(S(C)(=O)=O)cc2)cnn(-c2ccc(F)cc2)c1=O` (stereo unspecified) yielded a melting point of 45 to 60 °C.
For `Cc1nc(C(=O)N(C)C)c2n1-c1ccc(Cl)cc1C(c1ccccc1Cl)=NC2`, the melting point was 225 to 230 °C.
With `O=[N+]([O-])c1cc(Oc2ccc(Oc3cc([N+](=O)[O-])cc(C(F)(F)F)c3)cc2)cc(C(F)(F)F)c1` the melting point was 163 °C.
`COc1cc(COc2nn(-c3ccccc3)cc2/C=C/c2nnc(C)o2)ccc1OCc1nc(-c2ccco2)oc1C` showed a melting point of 186 to 187 °C.
`O=C(Nc1nnc(SCc2ccccc2)s1)C1CC1` gave a melting point of 182 to 184 °C.
Work on `O=S(=O)(N[C@H]1CC[C@H](CCN2CCC(c3cccc4c3CCO4)CC2)CC1)c1ccccc1` yielded a melting point of 130 °C.
`O=S(=O)(Cl)c1ccc2oc3cc(Br)ccc3c2c1` gave a melting point of 191 to 193 °C.
In the case of `O=C(CCc1ccc(NC2=NCCN2)cc1)c1ccc(N2CCOCC2)cc1`, the melting point is reported as 196 to 198 °C.
Molecule `Cn1c(C(F)(F)F)cc(=O)n(-c2cc(OCCCl)c(Cl)cc2F)c1=O` has a melting point of 100 to 103 °C.
Work on `C=CC(C)(C)c1c(C=O)c2ccc(Cl)cc2n1COCc1ccccc1` yielded a melting point of 227 °C.
Molecule `COc1cc2nc(OC)n3cnnc3c2cc1OC` has a melting point of 245 to 250 °C.
Work on `Cn1c(=O)sc2nc(-c3ccccc3)cn2c1=O` yielded a melting point of 228 to 229 °C.
With `CC(C)(C)OC(=O)N1C[C@@H](CC(=O)C(=[N+]=[N-])C(=O)OCc2ccc([N+](=O)[O-])cc2)[C@H]2NC(=O)[C@H]21` the melting point was 132 to 134 °C.
Molecule `CCOC(=O)Cn1c(=O)c(=O)[nH]c2cc(Br)ccc21` has a melting point of 282 to 283 °C.
Molecule `CCc1[nH]n(C2CCCC2)c2nc(Cc3ccncc3)nc(=O)c1-2` has a melting point of 162 to 164 °C.
For `CS(=O)(=O)N1CCCC(NC(=O)C(CC2CCCC2)NC(=O)c2ccco2)C(=O)C1` (stereo unspecified), the melting point was 158 to 161 °C.
In the case of `O=C(Nc1cccc(C(F)(F)F)c1)N1CCc2cc(Oc3cc(Cl)ncn3)ccc21`, the melting point is reported as 181 °C.
With `COc1cc2c(cc1Nc1ncc(Cl)c(Nc3ccccc3S(C)(=O)=O)n1)CCN(CC(=O)N(C)C)CC2` the melting point was 77 to 99 °C.
`CCCCC(CCCc1cccnc1)CC(NS(=O)(=O)c1ccc(Cl)cc1)C(=O)O` (stereo unspecified) showed a melting point of 113 to 114 °C.
For `CCCCCS(=O)(=O)NC(=O)CCc1ccc(OCCOC)cc1Oc1ccccc1`, the melting point was 70.4 to 70.5 °C.
`Cc1cnc(C)c(NCCc2c[nH]cn2)n1` showed a melting point of 164 to 165 °C.
Molecule `CCOC(OCC)N1C(=O)C2(CCCCC2)c2cc(-c3cc(F)cc(C#N)c3)ccc21` has a melting point of 146 °C.
For `Nc1nc(N)c2cc(S(=O)(=O)c3ccc(Cl)c(Cl)c3)ccc2n1`, the melting point was 286 to 289 °C.
For `NC(=O)c1cc2c(SCc3ccc(Cl)cc3)cncc2s1`, the melting point was 198 to 199 °C.
With `CC(C)(C)OC(=O)c1cccc(NC(N)=O)c1` the melting point was 230 to 232 °C.
With `CN(C)c1ccc(CNC(=O)CNC(=O)Nc2ccc(C(=N)N)cc2)cc1` the melting point was 209 to 214 °C.
For `COc1cc(N)c(Cl)cc1C(=O)N[C@H]1CCN(CCCC(=O)c2cccnc2)C[C@H]1OC` (relative stereo), the melting point was 166 °C.
In the case of `Cc1cc(OCc2cnc(-c3ccc(C(F)(F)F)nc3)nc2C2CC2)ccc1OC(C)(C)C(=O)O`, the melting point is reported as 185 to 186 °C.
With `CN1CCN(c2cc(Cl)nc(-c3ccccc3)n2)CC1` the melting point was 91 to 92.5 °C.
Molecule `COc1ccc(C(=O)Nc2ccc(F)c(F)c2)cc1N` has a melting point of 171 to 172 °C.
`CNC(=O)c1cc2ccc3c(c2c(-c2ccc(OC(F)(F)F)cc2)c1CO)OCO3` gave a melting point of 195 to 197 °C.
With `COc1ccc(C(=O)C2CCC(C)(C(=O)O)C2(C)C)c(OC)c1` (stereo unspecified) the melting point was 145 °C.
Work on `Cc1[nH]nc(Oc2c(Cl)cc(C(F)(F)F)cc2Cl)c1Cl` yielded a melting point of 156 to 158 °C.
Work on `Cc1nc2ccc3nc(O)c(O)nc3c2nc1C` yielded a melting point of over 300 °C.
`COC(=O)C(=CN(C)C)n1ccc2ccc(-c3nccc(-c4ccccc4)n3)cc21` showed a melting point of 168 °C.
`CCCCOC(=O)c1ccccc1-c1ccc(Cn2c(CCC)nc(C(C)(C)O)c2C(=O)OCOC(=O)OC(C)C)cc1` showed a melting point of 85 to 87 °C.
With `CON=C(c1ccccc1COc1cc(C)ccc1C)C1OCCO1` the melting point was 136 to 137 °C.
`COC(=O)NC1CCCCC1` gave a melting point of 73 to 74 °C.
Work on `C=CCCONC(=O)c1nc(-c2ccc(Cl)c(OC)c2F)cc(N)c1Cl` yielded a melting point of 141 to 143 °C.
`Nc1ncnc2c1nc(NCCP(=O)(O)O)n2C1OC(CO)C(O)C1O` (stereo unspecified) showed a melting point of 175 °C.
Work on `CSC(=Nc1c(C(C)C)cc(Oc2ccc(Cl)cc2)nc1C(C)C)NC(C)(C)C` yielded a melting point of 95 to 100 °C.
Work on `CNC(=O)Oc1cccc(NC(=O)CC(C)(OC)OC)c1` yielded a melting point of 139 °C.
In the case of `O=[N+]([O-])c1c(Cl)sc(Cl)c1S(=O)(=O)Cl`, the melting point is reported as 89 to 91 °C.
For `NC(=O)c1cccc(N2CCN(C(=O)c3c(-c4ccccc4)ccn3CC(=O)O)CC2)c1`, the melting point was 132 °C.
For `O=c1c2ccccc2nc2n1CCc1c-2[nH]c2ccc(F)cc12`, the melting point was 290 °C.
Molecule `CCN(CCN(CC)c1ccc(N=O)c(C)c1)c1ccc(N=O)c(C)c1` has a melting point of 157 °C.
For `CON=Cc1ccc2c(c1)c1c(n2Cc2cccc(F)c2)CCC(NC(=O)C(C)C)C1` (stereo unspecified), the melting point was 180 to 182 °C.
For `FC(F)(F)c1cccc(CN2C(=NCCCn3ccnc3)c3cccc4cccc2c34)c1`, the melting point was 108 to 109 °C.
With `COCCOCc1ccc(C#CC2(O)CN3CCC2CC3)c(F)c1` (stereo unspecified) the melting point was 117 to 118 °C.
Work on `CCOC(=O)c1cn(C)c2cnc3cc(F)c(N4CC5(C)CC4CC(C)(C)C5)cc3c2c1=O` (stereo unspecified) yielded a melting point of 187 °C.
`CCOC(=O)CCN(C(C)(C)C(=O)NO)S(=O)(=O)c1ccc(Oc2ccc(F)cc2)cc1` showed a melting point of 125 °C.
With `CC(=O)N1CCc2cc(O)ccc2C1` the melting point was 135 to 136 °C.
For `COc1ccc(CC2CCN(C(=O)C(=O)Nc3ccc4c(c3)CC(=O)N4)CC2)cc1`, the melting point was 215 to 217 °C.
In the case of `O=C(NCCO)c1cccc(-c2cccc3nn(Cc4cc(F)cc(Cl)c4)cc23)c1`, the melting point is reported as 188 to 189 °C.
`CCOc1cc2ncc(C#N)c(Nc3ccc(Sc4ccccc4)c(Cl)c3)c2cc1OCC` gave a melting point of 88 to 94 °C.
`Cc1cccc(C)c1NC(=O)CCN1CCN(CCCC(c2ccc(F)cc2)c2ccc(F)cc2)C(C(N)=O)C1` (stereo unspecified) gave a melting point of 121 °C.
For `CC(=O)Nc1c(-c2ccccc2C)nc2c3ccccc3ccn12`, the melting point was over 270 °C.
`COc1ccc(CN2c3ncccc3NC(=O)c3cccnc32)cc1` showed a melting point of 209 to 210 °C.
`COC(=O)C(Cc1ccc(OCc2ccccc2)cc1)N1CC(N2C(=O)c3ccccc3C2=O)C1=O` (stereo unspecified) gave a melting point of 147 to 148 °C.
Work on `CC(C)(C)c1cc(C(=O)c2ccccc2C(=O)O)cc(C(C)(C)C)c1O` yielded a melting point of 173 to 174 °C.
`CCC(=O)c1cc(C(=O)OC)c(N)cc1C(F)(F)F` showed a melting point of 141 to 144 °C.
For `COc1ccc2c(c1)CN(C)C(=O)C2c1cc(Cl)cc(Cl)c1` (stereo unspecified), the melting point was 163 to 165 °C.
